# Patent US20090291913A1, “FACTOR Xa INHIBITOR FORMULATION AND METHOD” (Bristol-Myers Squibb Company, priority 2005, published 2009)
# Legend:
# [1] = aqueous solubility as a function of pH; assay type: physicochemical
# [2] = solubility in substituted-β-cyclodextrin solution as a function of pH; assay type: physicochemical
# [3] = aqueous buffer, neutral form / free base, room temperature, pH 6.8
Structure (SMILES),"solubility [1, 3] [µg/mL]","solubility on adjusting pH ([1]; pH adjusted within pH 3-11, needed level e.g. 2.5 mg/mL)","solubility ([1]; simulated gastric fluid, hydrochloride salt, normal gastric pH condition, pH of gastric medium ~1-2) [µg/mL]",solubility in the substituted-β-cyclodextrins ([2]; pH 4.5 versus higher pH's up to 11),solubility in substituted-β-cyclodextrin solution ([2]; pH lowered to between about 3 and about 4)
CN(C)Cc1nccn1-c1ccc(NC(=O)c2cc(C(F)(F)F)nn2-c2ccc3onc(N)c3c2)c(F)c1.Cl [razaxaban],< 1,could not be increased to the needed level,~3000,same solubility,increase in solubility
"COc1ccc(-n2nc(C(N)=O)c3c2C(=O)N(c2ccc(N4CCCCC4=O)cc2)CC3)cc1 [Apixaban, 1-(4-methoxyphenyl)-7-oxo-6-[4-(2-oxo-1-piperidinyl)phenyl]-4,5,6,7-tetrahydro-1H-pyrazolo [3,4-c]pyridine-3-carboxamide]",< 1,–,–,–,–
